Laboratory results: patent US20060281806A1, “Treatment and inhibition of disease conditions using flexible heteroarotinoids” (priority 2005, published 2006)

Key:
[1] = Alanine aminotransferase (ALT) activity in plasma of mice; assay type: in vivo, mouse; conditions: end of treatment, 10 mg/kg/day by gavage
Experimental: At the end of the treatment period, blood was drawn from each animal. Plasma was separated by centrifugation and stored at −70° C. The activity of ALT was determined in aliquots of plasma by standard spectrophotometric enzymatic techniques which are based on the reduction of pyruvate by lactate dehydrogenase (28). The method measures NADH disappearance with time of incubation at 37° C. The activities are expressed as mm/L/min. Two different amounts of plasma were used in each assay to assure measurement of the maximum rate.

[2] = test system: dorsal skin of female Skh hairless mice; experiment: Topical irritancy; assay type: in vivo; conditions: mouse, in vivo
Experimental: Female Skh hairless mice, 6-8 weeks old, were treated topically on the dorsal skin for 4 days over a 2-log concentration dose range with various compounds. Retinoic acid receptor-Hets were evaluated in A, while retinoic acid receptor-independent Flex-Hets were evaluated in B. Daily flaking and abrasion scores were combined to calculate a single cutaneous toxicity score for each mouse. Each treatment group consisted of 4 mice, and group averages were used to plot cutaneous toxicity against doses of the compounds.
Topical irritancy was evaluated according to published procedures (29). Briefly, female Skh hairless mice, 6-8 weeks old, were treated topically on the dorsal skin for 4 days over a 2-log concentration dose range with various compounds. Daily flaking and abrasion scores were combined to calculate a single cutaneous toxicity score for each mouse. Each treatment group consists of 4 mice, and group averages are used to plot cutaneous toxicity against dose of the retinoid compound.

[3] = test system: C33a human cervical cell line; experiment: In vitro cytotoxicity (SRB growth inhibition) assay, C33a; assay type: cell-based; design: dose or concentration left out as unconfirmed; conditions: 72 h
Experimental: (§1) The SHetA2, SHetA3, SHetA4, SHet50 and 9-cis-RA compounds were evaluated in 4 cervical carcinoma cell lines. The SiHa, CC-1 and C33a human cervical cell lines were maintained in Minimal Essential Media (MEM) containing Earle's salts and L-glutamine supplemented with nonessential amino acids, 1% sodium pyruvate, 10% fetal bovine serum (FBS) and antibiotic/antimycotic. The HT-3 cervical carcinoma cell line was cultured in McCoy's 5a medium supplemented with 10% FBS and antibiotic/antimycotic. Cells were inoculated into 96 well microtiter plates at densities of 1000 cells/well and incubated for 24 h prior to addition of drugs. Drugs were dissolved in dimethyl sulfoxide (DMSO) and diluted in complete medium, prior to addition to triplicate culture wells to achieve final concentrations of […]. Following drug addition, the plates were incubated for 72 h. The assay was terminated by the addition of cold TCA and the cells were stained with 0.4% sulforhodamine B (SRB) in 1% acetic acid. Bound stain was subsequently solubilized with 10 mM trizma base, and the absorbance was read on an automated plate reader at a wavelength of 560 nm. Growth inhibition was determined by dividing the average Optical Density (OD) of the triplicated treated cultures by the average OD of the triplicate control cultures treated with DMSO solvent only. This ratio was converted into a percentage by multiplying by 100. The potency (concentration required to induce half of the maximal activity—GI50) were derived from dose-response graphs generated with results from 3 to 5 individual experiments using GraphPad Software.

ovarian cancer cells = experiment: Microarray analysis of gene expression in SHetA2-treated ovarian cancer cells; assay type: cell-based, human
Experimental: Microarray analysis was conducted to determine specific disease causing genes which were expressed at higher (>1 fold) or lower (<1 fold) levels than normal in ovarian cancer cells treated with SHetA2 (see Table 6).

[4] = test system: HT-3 cervical carcinoma cell line; experiment: In vitro cytotoxicity (SRB growth inhibition) assay, HT-3; assay type: cell-based, human; design: dose or concentration left out as unconfirmed; conditions: 72 h
Experimental: as §1

CC1(C)CC(C)(C)c2cc(NC(=S)Nc3ccc([N+](=O)[O-])cc3)ccc2S1 [SHetA2]
ALT Activity [1]: 118.5 ± 153.4 mm/liter/min | topical irritancy (cutaneous toxicity score) [2]: did not induce topical irritancy | Efficacy: percent growth inhibition relative to the untreated control [3]: 87% | Fold (ovarian cancer cells; gene: 3-hydroxyisobutyrate dehydrogenase, mitochondrial precursor, AK025558): 0.00 Fold | Fold (ovarian cancer cells; gene: A kinase (PRKA) anchor protein 1, clone MGC:1807, BC000729.1): 2.00 Fold | Fold (ovarian cancer cells; gene: A kinase anchor protein S-AKAP84 mRNA, U34074.1): 2.14 Fold | Fold (ovarian cancer cells; gene: ADAMTS1, AK023795.1): 0.43 Fold | Fold (ovarian cancer cells; gene: ADAMTS5, NM_007038.1): 0.23 Fold | Fold (ovarian cancer cells; gene: ASPLTFE3 type 2 fusion protein, ASPLTFE3 type 1 fusion protein mRNA, AY034077.1): 0.46 Fold | Fold (ovarian cancer cells; gene: ATP-binding cassette, sub-family B (MDRTAP), member 6 (ABCB6), NM_005689.1): 0.46 Fold | Fold (ovarian cancer cells; gene: ATP-binding cassette, sub-family D (ALD), member 2 (ABCD2), NM_005164.1): 2.71 Fold | Fold (ovarian cancer cells; gene: Amyotrophic lateral sclerosis 2 (juvenile) chromosome region, candidate 3 (ALS2CR3), NM_015049.1): 0.41 Fold | Fold (ovarian cancer cells; gene: Angiopoietin-like 2 (ANGPTL2), NM_012098.1): 2.16 Fold | Fold (ovarian cancer cells; gene: B-cell CLLlymphoma 3 (BCL3), AI829875): 2.58 Fold | Fold (ovarian cancer cells; gene: B-cell CLLlymphoma 3 (BCL3), NM_005178.1): 2.05 Fold | Fold (ovarian cancer cells; gene: BAGE2 antigen (BAGE2), AF218570.1): 0.34 Fold | Fold (ovarian cancer cells; gene: BAM in multiple myeloma, AF455755.1): 3.05 Fold | Fold (ovarian cancer cells; gene: Butyrophilin (BTF3), Cluster Incl. U90548): 2.15 Fold | Fold (ovarian cancer cells; gene: Butyrophilin, subfamily 3, member A2 (BTN3A2), AI991252): 2.31 Fold | Fold (ovarian cancer cells; gene: Butyrophilin, subfamily 3, member A3 (BTN3A3), NM_006994.2): 2.04 Fold | Fold (ovarian cancer cells; gene: Cervical cancer suppressor gene-4 protein (HCCS-4), AF465843.1): 2.06 Fold | Fold (ovarian cancer cells; gene: Chromosome 5 open reading frame 4 (C5ORF4), NM_016348.1): 2.76 Fold | Fold (ovarian cancer cells; gene: Deleted in lymphocytic leukemia, 2/DEF = Homo sapiens BCMS-upstream neighbor (BCMSUN), AF264787.1): 0.33 Fold | Fold (ovarian cancer cells; gene: Deleted in lymphocytic leukemia, BCMS-upstream neighbor (BCMSUN) (DLEU2), AF264787.1): 0.40 Fold | Fold (ovarian cancer cells; gene: Dysferlin, limb girdle muscular dystrophy 2B (DYSF), NM_003494.1): 2.16 Fold | Fold (ovarian cancer cells; gene: Dystrophin, dystrophin Dp40 isoform (DMD), NM_004019.1): 2.76 Fold | Fold (ovarian cancer cells; gene: EHT protein, AF068266.1): 2.80 Fold | Fold (ovarian cancer cells; gene: ESTs, Moderately similar to S72399 ras-homolog GTPase rab28 isoform S, AI080106): 7.75 Fold | Fold (ovarian cancer cells; gene: ESTs, Weakly similar to DRPL_Human Atrophin-1 (DRPL) in Huntington's disease (HD) and DRPLA, AI358954): 2.52 Fold | Fold (ovarian cancer cells; gene: ESTs, Weakly similar to DRPL_Human Atrophin-1 (DRPL) in dentatorubral-pallidoluysian atrophy, AI358954): 2.52 Fold | Fold (ovarian cancer cells; gene: Endothelial cell growth factor 1 (platelet-derived)/Thymidine phosphorylase, NM_001953): 0.42 Fold | Fold (ovarian cancer cells; gene: Enhancer of zeste (Drosophila) homolog 2 (EZH2) (USP14), NM_004456.1): 0.47 Fold | Fold (ovarian cancer cells; gene: FLJ23538 fis, highly similar to BETA2 Human MEN1 region clone epsilonbeta (BETA2), AI042152): 0.31 Fold | Fold (ovarian cancer cells; gene: FYN oncogene related to SRC, FGR and YES (FYN), N20923): 0.13 Fold | Fold (ovarian cancer cells; gene: FYN oncogene related to SRC, FGR and YES, c-syn protooncogene, M14333.1): 0.44 Fold | Fold (ovarian cancer cells; gene: Facioscapulohumeral muscular dystrophy (FSHD) gene region, D4Z4 tandem repeat unit, D38024): 2.43 Fold | Fold (ovarian cancer cells; gene: Familial Mediterranean fever locus region, AF098968.1): 0.30 Fold | Fold (ovarian cancer cells; gene: Fibroblast growth factor 2 (basic)(FGF2), NM_002006.1): 0.35 Fold | Fold (ovarian cancer cells; gene: Fibroblast growth factor 18 (FGF18), NM_003862.1): 2.75 Fold | Fold (ovarian cancer cells; gene: Galactosamine (N-acetyl)-6-sulfate sulfatase, NM_000512): 0.52 Fold | Fold (ovarian cancer cells; gene: Glypican-6 (GPC6), AF111178.1): 2.07 Fold | Fold (ovarian cancer cells; gene: Hemochromatosis splice variant 495-2314del, AF144243.1): 3.01 Fold | Fold (ovarian cancer cells; gene: IMAGE:3050107 mRNA, TBC1 domain family, BC001525): 0.67 Fold | Fold (ovarian cancer cells; gene: Keratocan (KERA), NM_007035.2): 0.50 Fold | Fold (ovarian cancer cells; gene: Lipoma cell line Li-538SV40 ectopic sequence from HMGI-C fusion mRNA (LI), AI990940): 0.47 Fold | Fold (ovarian cancer cells; gene: METH1 protein (METH1), AF060152.1): 0.39 Fold | Fold (ovarian cancer cells; gene: Myeloidlymphoid leukemia 2 (MLL2), AF105279.1): 0.31 Fold | Fold (ovarian cancer cells; gene: Myeloidlymphoid or mixed-lineage leukemia, translocated to, 4 (HGC6.3), AB016902.2): 5.07 Fold | Fold (ovarian cancer cells; gene: N-cym protein, NM_006316): 2.38 Fold | Fold (ovarian cancer cells; gene: NICE-5 protein, AW779859): 0.48 Fold | Fold (ovarian cancer cells; gene: Nasopharyngeal carcinoma susceptibility protein (LZ16), NM_013275.1): 0.41 Fold | Fold (ovarian cancer cells; gene: Nephropontin, M83248.1): 2.34 Fold | Fold (ovarian cancer cells; gene: Neuroblastoma, suppression of tumorigenicity 1 (NBL1), NM_005380.1): 3.07 Fold | Fold (ovarian cancer cells; gene: Niban protein (NIBAN), NM_022083.1): 0.21 Fold | Fold (ovarian cancer cells; gene: Novel MAFF LIKE protein, Cluster Incl. AL021977): 0.47 Fold | Fold (ovarian cancer cells; gene: PNAS-128 in leukemia, AF277186.1): 0.36 Fold | Fold (ovarian cancer cells; gene: Peroxisomal biogenesis factor 3 (PEX3), NM_003630.1): 0.43 Fold | Fold (ovarian cancer cells; gene: Peroxisomal biogenesis factor 14 (PEX14), NM_004565.1): 2.06 Fold | Fold (ovarian cancer cells; gene: Promyelocytic leukemia (PML), NM_002675.1): 2.76 Fold | Fold (ovarian cancer cells; gene: Prostate cancer associated protein 5 (PCANAP5), AI299378): 0.23 Fold | Fold (ovarian cancer cells; gene: Prothymosin alpha (PTMA), AF257099): 2.60 Fold | Fold (ovarian cancer cells; gene: Putative c-Myc-responsive (RCL), AA523444): 0.41 Fold | Fold (ovarian cancer cells; gene: RASSF3 isoform A, putative tumor suppressor, AY062002.1): 2.88 Fold | Fold (ovarian cancer cells; gene: RNA binding motif protein 5, putative tumor suppressor (LUCA15), U23946.1): 0.43 Fold | Fold (ovarian cancer cells; gene: Regulatory factor X-associated protein (RFXAP), NM_000538.1): 0.41 Fold | Fold (ovarian cancer cells; gene: Retinitis pigmentosa GTPase regulator (RPGR), NM_000328.1): 0.47 Fold | Fold (ovarian cancer cells; gene: Rhabdoid tumor deletion region protein 1 (RTDR1), NM_014433.1): 2.20 Fold | Fold (ovarian cancer cells; gene: SNRPN upstream reading frame (SNURF), BF114870): 0.39 Fold | Fold (ovarian cancer cells; gene: Sarcoglycan, gamma (35 kD dystrophin-associated glycoprotein), NM_000231.1): 0.04 Fold | Fold (ovarian cancer cells; gene: Similar to vitelliform macular dystrophy (Best disease, bestrophin), BC041664.1): 0.26 Fold | Fold (ovarian cancer cells; gene: Smcx homolog, X chromosome (mouse), NM_004187): 0.61 Fold | Fold (ovarian cancer cells; gene: Sulfite oxidase (SUOX), NM_000456.1): 2.11 Fold | Fold (ovarian cancer cells; gene: Thrombospondin 1 (THBS1), BE999967): 0.42 Fold | Fold (ovarian cancer cells; gene: Thrombospondin 4, NM_003248): 0.58 Fold | Fold (ovarian cancer cells; gene: Thromospondin 4 (THBS4), NM_03248.1): 2.58 Fold | Fold (ovarian cancer cells; gene: Transglutaminase 4 (prostate), NM_003241): 0.24 Fold | Fold (ovarian cancer cells; gene: Translocase of inner mitochondrial membrane 44 (yeast) homolog (TIM44), NM_006351.1): 0.50 Fold | Fold (ovarian cancer cells; gene: Trichorhinophalangeal syndrome I gene (TRPS1), NM_014112.1): 0.36 Fold | Fold (ovarian cancer cells; gene: UDP-galactose-4-epimerase, NM_000403): 0.66 Fold | Fold (ovarian cancer cells; gene: Unknown protein mRNA within the p53 intron 1, U58658.1): 0.45 Fold | Fold (ovarian cancer cells; gene: Vascular endothelial growth factor (VEGF), AF022375.1): 0.47 Fold | Fold (ovarian cancer cells; gene: Vitelliform macular dystrophy (Best disease, bestrophin) (VMD2), NM_004183.1): 0.28 Fold | Fold (ovarian cancer cells; gene: aarF domain containing kinase 4, BC013114): 2.30 Fold | Fold (ovarian cancer cells; gene: v-Myc avian myelocytomatosis viral related oncogene, neuroblastoma derived (MYCN), BC002712.1): 3.99 Fold | Efficacy: percent growth inhibition relative to the untreated control [4]: 92%
